Data: patent US8653236B2, “Therapeutic agents” (Inter-K Pty Limited, priority 2008, dated 2014)
“Also recorded” adds a separate entry of the source. No end group written: not given here.

Tests used:
Format in all cases: cell-based
[1] = test system: HT29 human colorectal adenocarcinoma cells; test: MTT cell proliferation assay, serum-containing
Experimental: (§1) HT29 (colorectal adenocarcinoma) (ATCC HTB-38; Manassas, Va.). SW480 colon carcinoma cells (ATCC) and MKN45 gastric carcinoma cells (Cancer Research Laboratory, University of New South Wales, Sydney, Australia) were maintained in DMEM (Invitrogen, Carlsbad, Calif.) containing 10% heat inactivated, filtered, fetal bovine serum (FBS; Invitrogen) and 20 mM HEPES buffer. Cell culture was carried out in an incubator set at 37° C. in 5% CO2 in air. Cells were grown to approximately 80% confluence in tissue culture flasks before being recovered from the substrate by trypsinisation. Briefly, resident culture media was removed and cells washed twice with sterile phosphate-buffered saline solution. A volume of 10× trypsin in EDTA (to provide 0.5% trypsin w/w) was added in sufficient quantity to cover the cells. When cells had sufficiently detached from the substrate, trypsin activity was stopped by the addition of 10% FBS in DMEM. Detached cells were transferred to a conical sterile tube and the suspended cells passaged ten times up and down through a 10 ml pipette to produce a single cell suspension suitable for counting. The number of viable cells was determined using a viability stain (Trypan blue) and counting using a haemocytometer.
(§2) The MTT cell proliferation assay measures cell proliferation rate and, in instances where cell viability is compromised, the assay indicates a comparative reduction in cell viability.
(§3) Single cell suspensions of viable trypsinised cells were seeded into 96-well tissue culture plates at a density of 2×10^3 cells per well in a volume of 100 ul of culture media with or without serum. A set of triplicate wells was prepared for each concentration of compound being tested. […]
(§4) Appropriate concentrations of compound were prepared by dilution of freshly prepared sterile 1 mM stock solutions in normal saline into cell culture media to give a final culture-well volume of 200 ul. […] Plates were gently vortexed to complete solubilisation of crystalline material and absorbance read at 540 nm using a microplate reader. […]

[2] = test system: HT29 human colorectal adenocarcinoma cells; test: MTT cell proliferation assay, serum-free; settings: absence of serum, 72 hour MTT assay, FIG. 5c
Experimental: as §1, §2, §3, §4

[3] = test system: MKN45 human gastric carcinoma cells; test: MTT cell proliferation assay, serum-containing; settings: presence of serum, 48 hour MTT assay, FIG. 6
Experimental: as §1, with “Detached cells were transferred to a conical sterile tube and the suspended cells passaged ten times up and down through a 10 ml pipette to produce a single cell suspension suitable for counting.” left out, “haemocytometer. […]” for “haemocytometer.”
as §4

[4] = test system: SW480 human colon carcinoma cells; test: MTT cell proliferation assay, serum-containing; settings: presence of serum, 48 hour MTT assay, FIG. 6
Experimental: as §1, with “Detached cells were transferred to a conical sterile tube and the suspended cells passaged ten times up and down through a 10 ml pipette to produce a single cell suspension suitable for counting.” left out, “haemocytometer. […]” for “haemocytometer.”
as §4

Substance: DDVRRRVQQETTGHRGRAKDPL (listed as Brevibacterium linens) [22C]
- depression of in vitro cell proliferation of colon cancer cells ([1]; MTT assay containing serum (24 hour assay), concentration of 35 uM, FIG. 5d): up to 54%
- effectiveness compared with other peptides ([1]; serum-supplemented culture media, FIG. 5d and FIG. 5a): more effective than peptide 14C and peptide 8C; also recorded: more effective than the 24-NH2 peptide
- inhibition of growth of HT29 colon cancer cells [2]: inhibited the growth
- inhibition of proliferation of MKN45 cells [3]: inhibit proliferation of SW480 and MKN45 cells to a similar degree as for HT29 cells
- inhibition of proliferation of SW480 cells [4]: inhibit proliferation of SW480 and MKN45 cells to a similar degree as for HT29 cells

Substance: 24-NH2: peptide consisting of amino acids 266-289 of GenBank Accession No. O68604; extended version of peptide 22C, synthesized and amidated (DDVRRRVQQETTGHRGRAKDPLYR-NH2; listed as Brevibacterium linens)
- depression of in vitro cell proliferation of colon cancer cells ([1]; MTT assay (72 hours), serum-containing, concentration of 50 μM, FIG. 5a): up to 36%

Substance: H-DDVRRRVQQETTGH-COOH (H-DDVRRRVQQETTGH-OH) [14C, 14 mer derivative of 22C containing the TAT-like motif]
- inhibition of growth of HT29 colon cancer cells [2]: inhibited the growth

Substance: RGRAKDPL [8C]
- inhibition of growth of HT29 colon cancer cells [2]: inhibited the growth
